Source: patent publication US11584714B2 (priority 2018, dated 2023)
Structures can show the parent of a compound that is named as a salt. Where two headings read alike, the source gives them in different places.

Key:
Assay type in all cases: biochemical
[1] = biological target: mMASP-2 (Mus musculus (Mouse), UniProt Q91WP0); experiment: Enzymatic inhibition of mMASP-2
[2] = biological target: MASP-2 (CCP1-CCP2-SP) (Homo sapiens (Human), UniProt O00187); experiment: biochemical
[3] = biological target: human α-thrombin (Homo sapiens (Human), UniProt P00734); experiment: Enzymatic assay for thrombin (Boc-VPR-AMC substrate)
[4] = selectivity for MASP-2 inhibition versus thrombin
[5] = MASP-2 inhibition versus thrombin

mMASP-2, sequence (Q91WP0 20-685): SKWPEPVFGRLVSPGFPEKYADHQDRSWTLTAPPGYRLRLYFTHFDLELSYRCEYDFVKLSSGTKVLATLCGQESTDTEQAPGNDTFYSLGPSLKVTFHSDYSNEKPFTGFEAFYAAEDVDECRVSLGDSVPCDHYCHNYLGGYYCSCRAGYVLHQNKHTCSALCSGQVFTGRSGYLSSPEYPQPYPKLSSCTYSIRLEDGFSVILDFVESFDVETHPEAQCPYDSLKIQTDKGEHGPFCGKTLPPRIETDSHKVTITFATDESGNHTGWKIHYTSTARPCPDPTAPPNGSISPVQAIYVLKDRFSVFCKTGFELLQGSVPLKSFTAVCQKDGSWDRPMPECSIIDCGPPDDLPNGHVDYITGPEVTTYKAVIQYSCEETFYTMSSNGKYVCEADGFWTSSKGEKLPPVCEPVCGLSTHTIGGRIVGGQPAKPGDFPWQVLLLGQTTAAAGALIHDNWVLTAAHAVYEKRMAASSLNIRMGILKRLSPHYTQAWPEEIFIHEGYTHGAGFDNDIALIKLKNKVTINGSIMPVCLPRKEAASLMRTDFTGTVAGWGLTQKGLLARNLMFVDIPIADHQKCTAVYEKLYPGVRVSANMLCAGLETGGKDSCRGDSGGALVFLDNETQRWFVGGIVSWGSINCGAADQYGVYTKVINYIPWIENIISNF
MASP-2 (CCP1-CCP2-SP), sequence (O00187 445-686): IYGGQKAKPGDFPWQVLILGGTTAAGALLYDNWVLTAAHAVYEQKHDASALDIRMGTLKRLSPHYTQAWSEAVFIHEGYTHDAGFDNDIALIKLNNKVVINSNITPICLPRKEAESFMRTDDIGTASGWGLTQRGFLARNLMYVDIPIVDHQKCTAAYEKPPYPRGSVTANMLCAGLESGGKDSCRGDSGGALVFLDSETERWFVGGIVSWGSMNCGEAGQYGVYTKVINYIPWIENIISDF

Row | Compound | Ki ([1]; read-out: mMASP-2 Ki) | Ki ([2]; read-out: MASP-2 Ki) | MASP-2 vs. thrombin selectivity [2, 4] | Ki ([3]; Thrombin Ki (μM)) | MASP-2 vs. thrombin selectivity [2, 5] | Ki ([3]; read-out: Thrombin Ki) | Ki [2] | Ki [1] | Ki ([2]; MASP-2 Ki (μM))
1 | C[C@H](NC(=O)[C@H]1C[C@@H](c2cccc(C#N)c2)CN1)C(=O)NCc1ccc(C(=N)N)cc1 [compound 1278, (2R,4S)—N—((S)-1-((4-Carbamimidoylbenzyl)amino)-1-oxopropan-2-yl)-4-(3-cyanophenyl)pyrrolidine-2-carboxamide] | < 500 nM | < 0.5 µM | *** (≥25 to <100-fold) | 2.5 to 10 µM | – | – | – | – | –
2 | C[C@@H](NC(=O)[C@H](N)CCc1ccccc1)C(=O)NCc1ccc2nc(N)[nH]c2c1 [compound 1170] | < 25000 nM | < 0.5 µM | – | – | **** (>100-fold) | > 25 µM | – | – | –
3 | CCCCCN[C@H](CCc1ccccc1)C(=O)N[C@@H](C)C(=O)NCc1ccc(N)nc1C [compound 1377, (R)—N—((S)-1-(((6-Amino-2-methylpyridin-3-yl)methyl)amino)-1-oxopropan-2-yl)-2-(pentylamino)-4-phenylbutanamide Di-trifluoroacetate salt] | > 25000 nM | – | ** (≥5.0 to <25-fold) | 10 to 25 µM | – | – | 0.5 to 2.5 µM | – | –
4 | C[C@H](NC(=O)[C@H]1C[C@@H](Cc2ccccc2)CN1)C(=O)NCc1ccc(C(=N)N)cc1 [compound 1284, (2R,4R)-4-Benzyl-N-((S)-1-((4-carbamimidoylbenzyl)amino)-1-oxopropan-2-yl)pyrrolidine-2-carboxamide] | < 500 nM | < 0.5 µM | * (≥1.0 to <5.0-fold) | – | – | < 0.5 µM | – | – | –
5 | C[C@H](NC(=O)[C@H]1C[C@H](c2ccccc2)CN1)C(=O)NCc1cnc2[nH]ccc2c1 [compound 1311, (2R,4R)—N—((S)-1-(((1H-Pyrrolo[2,3-b]pyridin-5-yl)methyl)amino)-1-oxopropan-2-yl)-4-phenylpyrrolidine-2-carboxamide Dihydrochloride] | 2500 to 10000 nM | – | * (≥1.0 to <5.0-fold) | – | – | > 25 µM | 2.5 to 10 µM | – | –
6 | Cc1nc(N)ccc1CNC(=O)[C@H](C)NC(=O)[C@H]1C[C@H](Cc2cccc(-c3ccccc3)c2)CN1 [compound 1406, (2R,4S)-4-([1,1′-Biphenyl]-3-ylmethyl)-N-((S)-1-(((6-amino-2-methylpyridin-3-yl)methyl)amino)-1-oxopropan-2-yl)pyrrolidine-2-carboxamide Dihydrochloric acid] | < 500 nM | < 0.5 µM | **** (≥100-fold) | 2.5 to 10 µM | – | – | – | – | –
7 | CC(=O)O/N=C(\N)c1ccc(CNC(=O)[C@H](C)NC(=O)[C@H]2C[C@H](c3ccccc3)CN2)cc1 [compound 1264, (2R,4R)—N—((S)-1-((4-((Z)-N′-Acetoxycarbamimidoyl)benzyl)amino)-1-oxopropan-2-yl)-4-phenylpyrrolidine-2-carboxamide] | – | – | – | – | – | > 25 µM | 2.5 to 10 µM | 10000 to 25000 nM | –
8 | Cc1cc(Cl)cc(CNC(=O)[C@H](C)NC(=O)[C@H]2C[C@H](Cc3ccccc3-c3ccccc3)CN2)c1O [compound 1401, (2R,4S)-4-([1,1′-Biphenyl]-2-ylmethyl)-N-((S)-1-((5-chloro-2-hydroxy-3-methylbenzyl)amino)-1-oxopropan-2-yl)pyrrolidine-2-carboxamide Hydrochloride] | 500 to 2500 nM | < 0.5 µM | – | – | – | > 25 µM | – | – | –
9 | C[C@H](NC(=O)[C@H]1C[C@H](c2ccccc2)CN1)C(=O)NCc1cnc2[nH]cc(Cl)c2c1 [compound 1329, (2R,4R)—N—((S)-1-(((3-chloro-1H-pyrrolo[2,3-b]pyridin-5-yl)methyl)amino)-1-oxopropan-2-yl)-4-phenylpyrrolidine-2-carboxamide Dihydrochloride] | < 500 nM | < 0.5 µM | * (≥1.0 to <5.0-fold) | 0.5 to 2.5 µM | – | – | – | – | –
10 | Cc1cc(C[C@@H]2CN[C@@H](C(=O)N[C@@H](C)C(=O)NCc3ccc(N)nc3C)C2)ccn1 [compound 1469, (2R,4S)—N—((S)-1-(((6-Amino-2-methylpyridin-3-yl)methyl)amino)-1-oxopropan-2-yl)-4-((2-methylpyridin-4-yl)methyl)pyrrolidine-2-carboxamide Dihydrochloride] | < 500 nM | < 0.5 µM | **** (≥100-fold) | 2.5 to 10 µM | – | – | – | – | –
11 | Cc1cccc(CC[C@@H](N)C(=O)N[C@@H](C)C(=O)NCc2ccc(C(=N)N)cc2)c1 [compound 1046] | < 500 nM | < 0.5 µM | – | – | ** (5.0 to 25-fold) | < 0.5 µM | – | – | –
12 | Cc1nc(N)ccc1CNC(=O)[C@@H](C)NC(=O)[C@H]1C[C@H](Cc2cccc(C(F)(F)F)c2)C(=O)N1 [compound 1321, (2R,4S)—N—((R)-1-(((6-Amino-2-methylpyridin-3-yl)methyl)amino)-1-oxopropan-2-yl)-5-oxo-4-(3-(trifluoromethyl)benzyl)pyrrolidine-2-carboxamide Di-trifluoroacetate salt] | > 25000 nM | – | – | – | – | > 25 µM | 10 to 25 µM | – | –
13 | C[C@H](NC(=O)[C@H](N)CCc1ccccc1)C(=O)NCc1ccc(C(=N)N)nc1 [compound 1270, (R)-2-Amino-N—((S)-1-(((6-carbamimidoylpyridin-3-yl)methyl)amino)-1-oxopropan-2-yl)-4-phenylbutanamide] | < 500 nM | < 0.5 µM | ** (≥5.0 to <25-fold) | – | – | < 0.5 µM | – | – | –
14 | Cc1nc(N)ccc1CNC(=O)[C@H](C)NC(=O)[C@H]1C[C@H](Cc2ccccc2-c2ccccc2)CN1 [compound 1373, (2R,4S)-4-([1,1′-Biphenyl]-2-ylmethyl)-N-((S)-1-(((6-amino-2-methylpyridin-3-yl)methyl)amino)-1-oxopropan-2-yl)pyrrolidine-2-carboxamide Di-trifluoroacetate salt] | < 500 nM | < 0.5 µM | *** (≥25 to <100-fold) | 0.5 to 2.5 µM | – | – | – | – | –
15 | Cc1nc(N)ccc1CNC(=O)[C@H](C)NC(=O)c1cc(Cc2ccccc2)n[nH]1 [compound 1367, (S)—N-(1-(((6-Amino-2-methylpyridin-3-yl)methyl)amino)-1-oxopropan-2-yl)-3-benzyl-1H-pyrazole-5-carboxamide] | 10000 to 25000 nM | < 0.5 µM | – | – | – | > 25 µM | – | – | –
16 | C[C@H](NC(=O)[C@H]1C[C@H](c2ccccc2)CN1)C(=O)NCc1ccc(C(=N)NC(=O)OCC(Cl)(Cl)Cl)cc1 [compound 1288, 2,2,2-Trichloroethyl (imino(4-(((S)-2-((2R,4R)-4-phenylpyrrolidine-2-carboxamido)propanamido)methyl)phenyl)methyl)carbamate] | – | – | – | – | – | > 25 µM | – | 2500 to 10000 nM | 2.5 to 10 µM
17 | C[C@H](NC(=O)[C@H]1C[C@H](c2ccccc2)CN1)C(=O)NCc1ccc(C(=N)N)c(F)c1 [compound 1300, (2R,4R)—N—((S)-1-((4-Carbamimidoyl-3-fluorobenzyl)amino)-1-oxopropan-2-yl)-4-phenylpyrrolidine-2-carboxamide Di-trifluoroacetate salt] | < 500 nM | < 0.5 µM | *** (≥25 to <100-fold) | 2.5 to 10 µM | – | – | – | – | –
18 | Cc1nc(N)ccc1CNC(=O)[C@H](C)NC(=O)[C@H]1C[C@H](Cc2cc3ccccc3s2)CN1 [compound 1458, (2R,4R)—N—((S)-1-(((6-Amino-2-methylpyridin-3-yl)methyl)amino)-1-oxopropan-2-yl)-4-(benzo[b]thiophen-2-ylmethyl)pyrrolidine-2-carboxamide Di-trifluoroacetate salt] | < 500 nM | < 0.5 µM | **** (≥100-fold) | – | – | > 25 µM | – | – | –
19 | C[C@H](NC(=O)[C@H]1C[C@H](Cc2ccccc2-c2ccccc2)CN1)C(=O)NCc1cc(Cl)ccc1-n1cnnn1 [compound 1402, (2R,4S)-4-([1,1′-Biphenyl]-2-ylmethyl)-N-((S)-1-((5-chloro-2-(1H-tetrazol-1-yl)benzyl)amino)-1-oxopropan-2-yl)pyrrolidine-2-carboxamide Trifluoroacetate] | 500 to 2500 nM | < 0.5 µM | * (≥1.0 to <5.0-fold) | – | – | < 0.5 µM | – | – | –
20 | Cc1nc(N)ccc1CNC(=O)[C@H](C)NC(=O)[C@H]1CC(Cc2ccc(F)cc2)(Cc2ccc(F)cc2)CN1 [compound 1480, (R)—N—((S)-1-(((6-Amino-2-methylpyridin-3-yl)methyl)amino)-1-oxopropan-2-yl)-4,4-bis(4-fluorobenzyl)pyrrolidine-2-carboxamide Di-trifluoroacetate salt] | 500 to 2500 nM | < 0.5 µM | **** (≥100-fold) | – | – | > 25 µM | – | – | –
21 | C[C@H](NC(=O)[C@H]1C[C@H](Cc2ccc(F)c(Cl)c2)CN1)C(=O)NCc1cc2cnccc2[nH]1 [compound 1494, (2R,4S)—N—((S)-1-(((1H-Pyrrolo[3,2-c]pyridin-2-yl)methyl)amino)-1-oxopropan-2-yl)-4-(3-chloro-4-fluorobenzyl)pyrrolidine-2-carboxamide Di-trifluoroacetate salt] | < 500 nM | < 0.5 µM | **** (≥100-fold) | 2.5 to 10 µM | – | – | – | – | –
22 | C[C@H](NC(=O)[C@H]1C[C@H](Cc2ccc(-c3cccnc3)cc2)CN1)C(=O)NCc1cc(Cl)ccc1-n1cnnn1 [compound 1404, (2R,4S)—N—((S)-1-((5-Chloro-2-(1H-tetrazol-1-yl)benzyl)amino)-1-oxopropan-2-yl)-4-(4-(pyridin-3-yl)benzyl)pyrrolidine-2-carboxamide Hydrochloride] | < 500 nM | < 0.5 µM | ** (≥5.0 to <25-fold) | – | – | < 0.5 µM | – | – | –
23 | C[C@H](NC(=O)[C@H](N)CCc1ccccc1)C(=O)NCc1cnc(N)c(F)c1 [compound 1267, (R)-2-amino-N—((S)-1-(((6-amino-5-fluoropyridin-3-yl)methyl)amino)-1-oxopropan-2-yl)-4-phenylbutanamide] | > 25000 nM | – | – | – | – | > 25 µM | 2.5 to 10 µM | – | –
